Test results: patent publication US20230404953A1, “COMPOUND FOR THE REDUCTION OF WHITE ADIPOSE TISSUE AND THE TREATMENT OF OVERWEIGHT AND OBESITY” (UNIVERSIDAD DE GRANADA, priority 2020, published 2023)

Experiments:
[1] = Quantification of β-RA levels in mouse tissues by HPLC-UV; format: in vivo; details: wild-type mice 3 months of age, β-RA in standard diet at 0.33% (w/w), oral, mean±SD
Experimental: The experimental treatment was based on the administration of β-RA in the chow feed at a concentration of 0.33% (weight/weight), which represents a dose of 0.25-0.75 g/kg of body weight/day. […] Therefore, β-RA has been chronically administered orally. The quantification of β-RA was carried out by means of HPLC-UV using an Ultra Aqueous C18 column and a mobile phase consisting of 20 mM potassium phosphate and 15% acetonitrile (pH 2.5). The standard curve consisted of β-RA at a concentration of 5, 25, and 100 μg/mL. In this example, β-RA levels were determined in order to know the bioavailability of the compound when it is administered orally. It has been observed that β-RA appears in the brain, kidneys, liver, and skeletal muscle, with the kidneys being the tissues having the highest level of the compound (Table 1).

[2] = test system: wild-type mice with a standard diet; test: Survival and phenotypic state of mice with a standard diet (overweight associated with age); format: in vivo
From the text: (§1) For the studies, c57Bl6j strain control mice were used under the protocols approved by the Animal Experimentation Ethics Committee of the University of Granada and registered by the competent body, the General Directorate of Agricultural and Livestock Production of the Ministry of Agriculture, Livestock, Fisheries, and Sustainable Development of the Regional Government of Andalusia, under reference numbers 18/02/2019/016 and 16/09/2019/153.
(§2) In this example intended for long-term evaluation during the aging process, the animals were kept on a standard rodent diet consisting mainly of carbohydrates (66% carbohydrates, 21% proteins, and 13% fats as energy sources), where these mice accumulate fat as they age, imitating a situation of overweight associated with age.
(§3) The experimental treatment was based on the administration of β-RA in the chow feed at a concentration of 0.33% (weight/weight), which represents a dose of 0.25-0.75 g/kg of body weight/day.
(§4) The mice were put under treatment after weaning at 21 days of life, with said treatment being maintained for the entire life of the animals. Analyses were performed at 18 months of life, unless another age is indicated, after 17 months of treatment.
(§5) Survival and body weight were determined through continuous records throughout the life of the animals. Motor coordination and activity were evaluated through the rotarod test. The muscle strength of the hind limbs was evaluated through the grip strength test. The image and the weight of the tissues were taken immediately after sacrificing and dissecting the animals.

[3] = test system: wild-type mice with a standard diet; test: Liver morphology of mice with a standard diet (H&E and Oil Red O staining); format: in vivo; details: standard diet + 0.33% (w/w) β-RA; 18 months of age; male and female mice
From the text: as §2, §3, §4
In this example, photographs have been taken of the animals and tissues after dissection. The tissues were fixed in formalin and embedded in paraffin. Several sections (4 μm thick) were deparaffinized with xylene and stained with hematoxylin and eosin staining (Luna-Sanchez M, Diaz-Casado E, Barca E, Tejada M A, Montilla-Garcia A, Cobos E J, Escames G, Acuna-Castroviejo D, Quinzii C M, Lopez L C (2015) The clinical heterogeneity of coenzyme Q10 deficiency results from genotypic differences in the Coq9 gene. EMBO Mol Med 7: 670-87). […]

kidney mitochondria = test: Kidney mitochondrial proteome in mice with a standard diet; format: in vivo
Experimental: To check if β-RA has effects on energy metabolism in mitochondria, a study was performed on the mitochondrial proteome of kidneys, because the highest β-RA levels are reached in this tissue (see Table 1).
Each kidney was dissected, and the mitochondrial fraction was then isolated by differential centrifugation. Each pellet was resuspended in […] of HEENK medium with a protease inhibitor. The samples were lysed, digested, and treated prior to injection in UHPLC. After quality control, the samples were injected into a UHPLC 1290 system (Agilent Technologies; Santa Clara, USA) coupled to a Q Exactive HF mass spectrometer (Thermo Scientific; Bremen, Germany) in the previously described conditions (Liu F, Lossl P, Rabbitts B M, Balaban R S, Heck A J R (2018) The interactome of intact mitochondria by cross-linking mass spectrometry provides evidence for coexisting respiratory supercomplexes. Mol Cell Proteomics 17: 216-232). The raw files generated were analyzed using MaxQuant v1.6.10 software (Cox J, Mann M (2008) MaxQuant enables high peptide identification rates, individualized p.p.b.-range mass accuracies and proteome-wide protein quantification. Nat Biotechnol 26: 1367-72). The files generated with MaxQuant were analyzed with Perseus: LFQ data was log 2-transformed, and identifications that were present in at least 3 of the 5 replicates were kept for subsequent analyses. For the volcano plot, a P-value threshold of 0.01 and 1 for the LFQ value log 2 difference has been established.

3T3L1 preadipocytes = test: MTT cell proliferation assay in preadipocytes; format: cell-based; details: 1 mM β-RA for 5 days, proliferation conditions
Experimental: (§6) It is known that one of the WAT expansion mechanisms is hyperplasia, i.e., the capacity of WAT to recruit new adipocytes proliferated from precursor cells. To check whether the effect of β-RA on WAT may also constitute a direct action on WAT, the proliferative capacity of a preadipocyte cell line (3T3L1) subjected to treatment with β-RA was determined in in vitro assays, and the results were compared with those obtained in a myoblast cell line (C2C12). This could be used to determine whether the possible effects are specific of a given cell type, excluding those signals and consequences resulting from the physiological context of the in vivo studies. Preadipocyte cell line 3T3L1 and myoblast cell line C2C12 were provided by the Cell Culture Department of the Science Instrumentation Center of the University of Granada. The cells were cultured in glucose-rich DMEM-GlutaMAX supplemented with 10% BCS or FBS, 1% non-essential amino acids MEM, and 1% antibiotic/antimycotic. Treatment with β-RA was administered at a concentration of 1 mM for 5 days. A control group was also treated with vehicle (DMSO) at the same concentration (Luna-Sanchez et al., 2015). The proliferation assay was performed with Vybrant® MTT Cell Proliferation Assay Kit (ThermoFisher Scientific), following the indications of the manufacturing company.

C2C12 myoblasts = test: MTT cell proliferation assay in myoblasts; format: cell-based; details: 1 mM β-RA for 5 days, proliferation conditions
Experimental: as §6

[4] = test system: wild-type mice with a HFHS diet; test: Phenotypic state of mice with a high fat high sucrose (HFHS) diet (induced obesity); format: in vivo; details: HFHS diet + 0.33% (w/w) β-RA, 16 weeks
From the text: as §1
(§7) In this example intended for performing a short-term evaluation in an induced metabolic syndrome model, the animals were fed on a high fat high sucrose (HFHS) diet (32% carbohydrates, 14% proteins, and 54% fats as energy sources), where said mice experience a higher fat gain, imitating a state of obesity.
as §3
(§8) The mice were put under treatment at two months of life, with said treatment being maintained for 4 months. Analyses were performed at 6 months of life, after 4 months of treatment.
as §5

[5] = test system: wild-type mice with a HFHS diet; test: Plasma levels of insulin and GIP in mice with a HFHS diet; format: in vivo; details: HFHS diet + β-RA, 16 weeks
From the text: as §7, §3, §8
Plasma levels of insulin and gastric inhibitory peptide (GIP), also called glucose-dependent insulinotropic peptide, given that both of them tend to increase in cases of obesity with insulin resistance, were determined. […] The administration of β-RA to mice with a HFHS diet reduced the plasma levels of insulin (FIG. 14A) and GIP (FIG. 14B), normalizing said values.

[6] = test system: white adipose tissue (WAT); test: CoQ metabolism in white adipose tissue of mice with a HFHS diet; format: in vivo; details: HFHS diet + β-RA, 16 weeks
From the text: as §7, §3, §8
(§9) At the level of WAT, CoQ metabolism was evaluated by determining the levels of the major form of CoQ in rodents, i.e., CoQ9, as well as the levels of two limiting enzymes in the CoQ biosynthesis pathway, i.e., the hydroxylase Coq7 and the methyltransferase Coq5. […] These molecular changes translate into morphological changes observed with hematoxylin and eosin staining. […] As a result, the area occupied by adipocytes after treatment with a HFHS diet is larger than after treatment with the standard diet, with the number of adipocytes being smaller. Treatment with β-RA normalizes both the area of the adipocytes (FIG. 16G) and the number thereof (FIG. 16H).

white adipocytes = test: Morphology of WAT in mice with a HFHS diet (hematoxylin and eosin staining); format: in vivo; details: HFHS diet + β-RA, 16 weeks
From the text: as §7, §3, §8, §9

[7] = CAG-CreER^T2; Mclk1^Loxp/Loxp control mice; cited from earlier work
[8] = standard diet + 0.33% (w/w) β-RA, 18 months of age

For `O=C(O)c1ccc(O)cc1O` [β-RA, 2,4-dihydroxybenzoic acid], which “β-RA levels, Brain” value ([1]; brain) is on record?
The value was 1.26 ± 0.58 ng of β-RA/mg of protein.

What about the “β-RA levels, Kidney” value ([1]; kidney) of the same compound?
Its value is 43.02 ± 16.51 ng of β-RA/mg of protein.

And the “β-RA levels, Liver” value ([1]; liver)?
The value was 7.04 ± 2.96 ng of β-RA/mg of protein.

What about the “β-RA levels, Muscle” value ([1]; skeletal muscle) of the same compound?
Its value is 20.28 ± 9.39 ng of β-RA/mg of protein.

And the Body weight ([2]; standard diet + 0.33% (w/w) β-RA from weaning, all stages of development, male and female)?
Its Body weight is “reduction of weight”.

And the Survival ([2]; standard diet + 0.33% (w/w) β-RA from weaning, old-age stage (18-24 months))?
The Survival was “increase in survival”.

And the “Amount of abdominal and visceral fat” value [2, 8]?
Its value is “reduction in the amount of abdominal and visceral fat”.

What about the “Motor coordination (rotarod test)” value [2, 8] of the same compound?
The value was “slight upward trend”.

What about the “Muscle strength of the hind limbs (grip strength test)” value [2, 8] of the same compound?
The value was “remained unchanged and even slightly increased in reference to the total weight of the animal”.

And the “Weight of the skeletal muscles” value ([2]; standard diet + 0.33% (w/w) β-RA, 18 months of age, hind limbs)?
The value was “maintained in the normal range”.

And the “Onset of hepatic steatosis (lipid droplets in liver)” value [3]?
The value was “prevented”.

And the “Changes in the mitochondrial proteome: proteins of acetyl-CoA production from pyruvate and of the Krebs cycle” value (kidney mitochondria; mice with standard diet + β-RA)?
Its value is “an increase in proteins linked to the metabolic pathways for the production of acetyl-CoA from pyruvate and of the tricarboxylic acid cycle or Krebs cycle”.

What about the “Expr Fold Change, ACO2” value (kidney mitochondria; β-RA treated vs untreated mice, Aconitase 2 (Q99KI0)) of the same compound?
The value was 1.383.

And the “Expr Fold Change, SUCLG1” value (kidney mitochondria; β-RA treated vs untreated mice, Succinate CoA ligase subunit alpha (Q9WUM5))?
The value was 1.301.

And the “Expr Fold Change, SUCLG2” value (kidney mitochondria; β-RA treated vs untreated mice, Succinate CoA ligase subunit beta (Q9Z2I8))?
The value was 1.189.

And the “Expr Fold Change, CS” value (kidney mitochondria; β-RA treated vs untreated mice, citrate synthase (Q9CZU6))?
Its value is 1.485.

And the “Expr Fold Change, DLAT” value (kidney mitochondria; β-RA treated vs untreated mice, dihydrolipoamide S-acetyltransferase (Q8BMF4))?
The value was 1.638.

What about the “Expr Fold Change, DLST” value (kidney mitochondria; β-RA treated vs untreated mice, dihydrolipoamide S-succinyltransferase (Q9D2G2)) of the same compound?
Its value is 2.316.

And the “Expr Fold Change, DLD” value (kidney mitochondria; β-RA treated vs untreated mice, dihydrolipoamide dehydrogenase (O08749))?
Its value is 1.831.

And the “Expr Fold Change, IDH3A” value (kidney mitochondria; β-RA treated vs untreated mice, isocitrate dehydrogenase (NAD(+)) 3 catalytic subunit alpha (Q9D6R2))?
The value was 1.72.

And the “Expr Fold Change, IDH3B” value (kidney mitochondria; β-RA treated vs untreated mice, isocitrate dehydrogenase (NAD(+)) 3 non-catalytic subunit beta (Q91VA7))?
Its value is 1.727.

And the “Expr Fold Change, IDH3G” value (kidney mitochondria; β-RA treated vs untreated mice, isocitrate dehydrogenase (NAD(+)) 3 non-catalytic subunit gamma (P70404))?
The value was 1.573.

What about the “Expr Fold Change, MDH2” value (kidney mitochondria; β-RA treated vs untreated mice, malate dehydrogenase 2 (P08249)) of the same compound?
The value was 1.397.

And the “Expr Fold Change, OGDH” value (kidney mitochondria; β-RA treated vs untreated mice, oxoglutarate dehydrogenase (Q60597))?
The value was 2.05.

And the “Expr Fold Change, PDHA1” value (kidney mitochondria; β-RA treated vs untreated mice, pyruvate dehydrogenase E1 subunit alpha 1 (P35486))?
The value was 1.61.

And the “Expr Fold Change, PDHB” value (kidney mitochondria; β-RA treated vs untreated mice, pyruvate dehydrogenase E1 subunit beta (Q9D051))?
Its value is 1.711.

What about the 3T3L1 preadipocyte proliferation (3T3L1 preadipocytes) of the same compound?
Its 3T3L1 preadipocyte proliferation is “induces an inhibition”.

What about the “Proliferative capacity of C2C12 myoblasts” value (C2C12 myoblasts) of the same compound?
Its value is “did not have a significant effect”.

What about the “Abdominal and visceral fat” value [4] of the same compound?
The value was “reduction of abdominal and visceral fat”.

And the Skeletal muscle mass [4]?
The Skeletal muscle mass was “do not cause any changes”.

And the “Body weight (increase induced by HFHS diet)” value ([4]; male and female)?
Its value is “counteracted said increase in weight”.

And the “Plasma levels of gastric inhibitory peptide (GIP)” value [5]?
The value was “reduced”.

And the “Plasma levels of insulin” value [5]?
Its value is “reduced”.

What about the “Levels of CoQ9 in WAT” value [6] of the same compound?
Its value is “increased said levels, achieving the normalization thereof”.

What about the “Levels of biosynthetic protein Coq5 in WAT” value [6] of the same compound?
Its value is “increase”.

What about the “Levels of biosynthetic protein Coq7 in WAT” value [6] of the same compound?
The value was “increase in the levels of Coq7”.

And the “Area of the adipocytes” value (white adipocytes)?
The value was “normalizes”.

What about the “Number of adipocytes per area” value (white adipocytes) of the same compound?
Its value is “normalizes”.

And the “Hypertrophy of WAT (white adipocytes)” value (white adipocytes; H&E staining)?
Its value is “prevents hypertrophy of WAT”.

And the Body weight [7]?
Its Body weight is “reduces the body weight”.
